The target in the assay is T1, chimeric human H3 receptor (Homo sapiens, UniProt Q9Y5N1).
T1 construct: rat Galpha-i2 (Gnai2, rat); made in house; host or cells: Sf9 insect cells (baculovirus); P2 membranes
The assay can be described thus: Chimeric human H3 receptor screening GTP binding assay (inhibition of histamine-stimulated GTP-gamma35S binding, Example 8). Format: biochemical. The method, then: This Example illustrates a representative screening assay for evaluating inhibition of histamine-stimulated GTP-gamma^35S binding. Such GTP binding activity can be used to identify H3 antagonists and inverse agonists. A compound analyzed in this assay is referred to herein as a “test compound,” and the initial identification of antagonists and inverse agonists is performed using a test compound concentration of 4 μM.
Four independent baculoviral stocks (one directing the expression of the chimeric human H3 receptor and three directing the expression of each of the three subunits of a heterotrimeric G-protein) are used to infect a culture of Sƒ9 cells as described above. P2 membranes are prepared as described above, and are resuspended by Dounce homogenization (tight pestle) in GTP binding assay buffer (50 mM Tris pH 7.4, 120 mM NaCl, 5 mM MgCl2, 2 mM EGTA, 1 mg/ml BSA, 0.2 mg/ml bacitracin, 0.02 mg/ml aprotinin, 0.01 mg/ml saponin, 10 μM GDP) and added to assay tubes at a concentration of 35 μg protein/reaction tube. Non-radiolabeled test compounds are added to separate reactions at a concentration of 4 μM along with 1 μM histamine (agonist). Reactions are initiated by the addition of 125 pM GTP-gamma^35S with a final assay volume of 0.20 ml.
After a 60-min incubation at room temperature, reactions are terminated by vacuum filtration over GF/C filters (pre-soaked in 50 mM Tris pH 7.4, 120 mM NaCl plus 0.1% BSA) followed by washing with ice-cold buffer (50 mM Tris pH 7.4, 120 mM NaCl). The amount of receptor-bound (and thereby membrane-bound) GTP-gamma^35S is determined by measuring the bound radioactivity, preferably by liquid scintillation spectrometry of the washed filters. Non-specific binding is determined using 10 uM GTP-gammaS and typically represents less than 5 percent of total binding. After subtraction of non-specific binding, data is expressed as percent inhibition of 1 μM histamine signal.
Neutral antagonists are those test compounds that reduce the histamine-stimulated GTP binding activity towards, but not below, baseline levels. In contrast, in the absence of added histamine, inverse agonists reduce the GTP binding activity of the receptor-containing membranes below baseline. Any test compound that elevates GTP binding activity above baseline in the absence of added histamine in this assay is defined as having agonist activity.
A general note: Binding of GTPγS marks nucleotide exchange on a G protein.

Setting [1] is: symbol ! in Ki, test compound 4 μM, 1 μM histamine, read-out: percent inhibition of agonist-induced GTP-gammaS binding to H3.
[2] abbreviates: 1 h, assay described in Example 8, symbol "!" in column headed Ki, read-out: Ki ("!": percent inhibition of agonist-induced GTP-gammaS binding to H3).
Setting [3] is: 1 h, assay of Example 8, symbol "!" in column headed Ki, read-out: percent inhibition of agonist-induced GTP-gammaS binding to H3.

This passage reports inhibition results from patent US20080051387A1, “TETRAHYDROPYRIDO[3,4-D]PYRIMIDINES AND RELATED ANALOGUES” (priority 2006, published 2008).

Like-named read-outs stand apart in the source and are kept apart here. Some results are limits rather than exact numbers.

T1 sequence (Q9Y5N1 with tags, fused parts or gaps): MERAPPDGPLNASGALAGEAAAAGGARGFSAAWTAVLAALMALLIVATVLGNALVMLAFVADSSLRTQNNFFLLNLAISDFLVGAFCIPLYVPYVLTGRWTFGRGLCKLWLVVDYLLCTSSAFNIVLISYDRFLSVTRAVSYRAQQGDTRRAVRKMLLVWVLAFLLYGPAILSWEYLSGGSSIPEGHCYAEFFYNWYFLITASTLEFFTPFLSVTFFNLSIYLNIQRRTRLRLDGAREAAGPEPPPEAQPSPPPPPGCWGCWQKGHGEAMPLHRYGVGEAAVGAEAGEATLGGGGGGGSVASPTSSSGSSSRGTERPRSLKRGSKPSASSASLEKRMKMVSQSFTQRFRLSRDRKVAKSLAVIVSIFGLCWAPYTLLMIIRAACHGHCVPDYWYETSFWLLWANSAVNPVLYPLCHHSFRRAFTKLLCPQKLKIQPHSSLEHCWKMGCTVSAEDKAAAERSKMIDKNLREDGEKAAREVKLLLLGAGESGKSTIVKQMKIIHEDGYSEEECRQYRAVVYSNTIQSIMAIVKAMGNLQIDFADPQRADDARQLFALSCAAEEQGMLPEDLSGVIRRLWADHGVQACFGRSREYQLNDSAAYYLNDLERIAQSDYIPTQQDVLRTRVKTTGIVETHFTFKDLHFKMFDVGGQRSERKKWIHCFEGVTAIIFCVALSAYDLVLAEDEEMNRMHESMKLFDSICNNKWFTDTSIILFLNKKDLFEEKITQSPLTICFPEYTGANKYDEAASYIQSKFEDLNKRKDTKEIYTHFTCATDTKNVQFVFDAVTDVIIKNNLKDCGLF

With `c1ccc2nc(CN3CCc4ncnc(N5CCN(C6CCC6)CC5)c4CC3)ccc2c1` [Compound 174, 4-(4-cyclobutylpiperazin-1-yl)-7-(quinolin-2-ylmethyl)-6,7,8,9-tetrahydro-5H-pyrimido[4,5-d]azepine], the inhibition at 4 µM under setting [1] was ≥ 90%. For the molecule `O=C(c1c(-c2ccccc2)nnc2ccccc12)N1CCc2cnc(N3CCN(C4CCC4)CC3)nc2CC1` [Compound 510, 2-(4-cyclobutylpiperazin-1-yl)-7-[(3-phenylcinnolin-4-yl)carbonyl]-6,7,8,9-tetrahydro-5H-pyrimido[4,5-d]azepine], the inhibition at 4 µM under setting [2] is ≥ 90%. Take `CCCCCN1CCc2nc(N3CCN(C4CCC4)CC3)ncc2C1` [Compound 629, 2-(4-cyclobutylpiperazin-1-yl)-6-pentyl-5,6,7,8-tetrahydropyrido[4,3-d]pyrimidine]: the inhibition at 4 µM under setting [1] was ≥ 90%. Consider `c1nc2c(c(N3CCN(C4CCC4)CC3)n1)CCN(CC1CCOCC1)CC2` [Compound 271, 4-(4-cyclobutylpiperazin-1-yl)-7-(tetrahydro-2H-pyran-4-ylmethyl)-6,7,8,9-tetrahydro-5H-pyrimido[4,5-d]azepine], for which, under setting [3], the inhibition at 4 µM is ≥ 90%. Regarding `COc1cccc(C(=O)N2CCc3c(ncnc3N3CCN(C4CCC4)CC3)C2)c1` [Compound 26, 4-(4-cyclobutylpiperazin-1-yl)-7-(3-methoxybenzoyl)-5,6,7,8-tetrahydropyrido[3,4-d]pyrimidine], the inhibition at 4 µM under setting [1] is ≥ 90%. Regarding `O=C(C(c1ccccc1)C1CCCC1)N1CCc2cnc(N3CCN(C4CCC4)CC3)nc2CC1` (centres unmarked) [Compound 353, 2-(4-cyclobutylpiperazin-1-yl)-7-[cyclopentyl(phenyl)acetyl]-6,7,8,9-tetrahydro-5H-pyrimido[4,5-d]azepine], the inhibition at 4 µM under setting [3] is ≥ 90%. For the molecule `O=C(/C=C/c1ccccc1Cl)N1CCc2cnc(N3CCN(C4CCC4)CC3)nc2CC1` [Compound 579, 7-[(2E)-3-(2-chlorophenyl)prop-2-enoyl]-2-(4-cyclobutylpiperazin-1-yl)-6,7,8,9-tetrahydro-5H-pyrimido[4,5-d]azepine], the inhibition at 4 µM under setting [2] was ≥ 90%.

Take `O=C(c1ccc(-c2ccccc2)cc1)N1CCc2cnc(N3CCN(C4CCC4)CC3)nc2CC1` [Compound 365]: the inhibition at 4 µM under setting [3] is ≥ 90%. As to `COc1ccc(C(=O)N2CCc3c(ncnc3N3CCN(C4CCC4)CC3)C2)cc1` [Compound 27, 4-(4-cyclobutylpiperazin-1-yl)-7-(4-methoxybenzoyl)-5,6,7,8-tetrahydropyrido[3,4-d]pyrimidine], under setting [1], the inhibition at 4 µM was ≥ 90%. As to `O=C(CC1CCCCC1)N1CCc2cnc(N3CCN(C4CCC4)CC3)nc2CC1` [Compound 211, 2-(4-cyclobutylpiperazin-1-yl)-7-(cyclohexylacetyl)-6,7,8,9-tetrahydro-5H-pyrimido[4,5-d]azepine], the inhibition at 4 µM under setting [3] is ≥ 90%. As to `O=C(Cc1cccc(Cl)c1)N1CCc2cnc(N3CCN(C4CCC4)CC3)nc2CC1` [Compound 284, 7-[(3-chlorophenyl)acetyl]-2-(4-cyclobutylpiperazin-1-yl)-6,7,8,9-tetrahydro-5H-pyrimido[4,5-d]azepine], the inhibition at 4 µM under setting [3] is ≥ 90%. As to `Clc1ccccc1CN1CCc2ncnc(N3CCN(C4CCC4)CC3)c2CC1` [Compound 180, 7-(2-chlorobenzyl)-4-(4-cyclobutylpiperazin-1-yl)-6,7,8,9-tetrahydro-5H-pyrimido[4,5-d]azepine], the inhibition at 4 µM under setting [1] was ≥ 90%. On the same count and under the same terms, the same measure for `Cc1cccc(CN2CCc3nc(N4CCN(C5CCC5)CC4)ncc3C2)c1` [Compound 614, 2-(4-cyclobutylpiperazin-1-yl)-6-(3-methylbenzyl)-5,6,7,8-tetrahydropyrido[4,3-d]pyrimidine]: ≥ 90%. Turning to `Cc1cc(CN2CCc3cnc(N4CCN(C5CCC5)CC4)nc3CC2)n(C)n1` [Compound 241, 2-(4-cyclobutylpiperazin-1-yl)-7-[(1,3-dimethyl-1H-pyrazol-5-yl)methyl]-6,7,8,9-tetrahydro-5H-pyrimido[4,5-d]azepine], the inhibition at 4 µM under setting [3] was ≥ 90%. With `c1ccc2nc(CN3CCc4nc(N5CCN(C6CCC6)CC5)ncc4C3)ccc2c1` [Compound 639, 2-(4-cyclobutylpiperazin-1-yl)-6-(quinolin-2-ylmethyl)-5,6,7,8-tetrahydropyrido[4,3-d]pyrimidine], under setting [1], the inhibition at 4 µM is ≥ 90%. On to `Clc1ccccc1CN1CCc2nc(N3CCN(C4CCC4)CC3)ncc2C1` [Compound 645, 6-(2-chlorobenzyl)-2-(4-cyclobutylpiperazin-1-yl)-5,6,7,8-tetrahydropyrido[4,3-d]pyrimidine], for which the inhibition at 4 µM under setting [1] was ≥ 90%. The same measure, in the same setting: the same measure for `COc1ccc(OC)c(CN2CCc3nc(N4CCN(C5CCC5)CC4)ncc3C2)c1` [Compound 641, 2-(4-cyclobutylpiperazin-1-yl)-6-(2,5-dimethoxybenzyl)-5,6,7,8-tetrahydropyrido[4,3-d]pyrimidine]: ≥ 90%; for `CC(c1cccc(F)c1)N1CCc2c(ncnc2N2CCN(C3CCC3)CC2)C1` (centres unmarked) [Compound 103, 4-(4-cyclobutylpiperazin-1-yl)-7-[1-(3-fluorophenyl)ethyl]-5,6,7,8-tetrahydropyrido[3,4-d]pyrimidine]: ≥ 90%; for `CCCC(C)N1CCc2c(ncnc2N2CCN(C3CCC3)CC2)C1` (centres unmarked) [Compound 118, 4-(4-cyclobutylpiperazin-1-yl)-7-(1-methylbutyl)-5,6,7,8-tetrahydropyrido[3,4-d]pyrimidine]: ≥ 90%. Take `CCCC(=O)N1CCc2cnc(N3CCN(C4CCC4)CC3)nc2CC1` [Compound 206, 7-butyryl-2-(4-cyclobutylpiperazin-1-yl)-6,7,8,9-tetrahydro-5H-pyrimido[4,5-d]azepine]: under setting [3], the inhibition at 4 µM is ≥ 90%. On the same count and under the same terms, then `COc1ccc(CC(=O)N2CCc3cnc(N4CCN(C5CCC5)CC4)nc3CC2)cc1` [Compound 274, 2-(4-cyclobutylpiperazin-1-yl)-7-[(4-methoxyphenyl)acetyl]-6,7,8,9-tetrahydro-5H-pyrimido[4,5-d]azepine], with ≥ 90%. For the molecule `Cn1c(C(=O)N2CCc3cnc(N4CCN(C5CCC5)CC4)nc3CC2)cc2ccccc21` [Compound 461, 2-(4-cyclobutylpiperazin-1-yl)-7-[(1-methyl-1H-indol-2-yl)carbonyl]-6,7,8,9-tetrahydro-5H-pyrimido[4,5-d]azepine], the inhibition at 4 µM under setting [2] was ≥ 90%. Still for that read-out and setting: then `COc1ccc(C(=O)N2CCc3cnc(N4CCN(C5CCC5)CC4)nc3CC2)c(OC)c1OC` [Compound 432, 2-(4-cyclobutylpiperazin-1-yl)-7-(2,3,4-trimethoxybenzoyl)-6,7,8,9-tetrahydro-5H-pyrimido[4,5-d]azepine], with ≥ 90%. Regarding `CC(C)CC(C)N1CCc2c(ncnc2N2CCN(C3CCC3)CC2)C1` (centres unmarked) [Compound 116, 4-(4-cyclobutylpiperazin-1-yl)-7-(1,3-dimethylbutyl)-5,6,7,8-tetrahydropyrido[3,4-d]pyrimidine], under setting [1], the inhibition at 4 µM is ≥ 90%. `CCCc1ccc(C(=O)N2CCc3cnc(N4CCN(C5CCC5)CC4)nc3CC2)cc1` [Compound 362, 2-(4-cyclobutylpiperazin-1-yl)-7-(4-propylbenzoyl)-6,7,8,9-tetrahydro-5H-pyrimido[4,5-d]azepine]: the inhibition at 4 µM under setting [3] was ≥ 90%. Same read-out and setting: the same measure for `O=C(Cc1ccc2c(c1)OCO2)N1CCc2cnc(N3CCN(C4CCC4)CC3)nc2CC1` [Compound 277, 7-(1,3-benzodioxol-5-ylacetyl)-2-(4-cyclobutylpiperazin-1-yl)-6,7,8,9-tetrahydro-5H-pyrimido[4,5-d]azepine]: ≥ 90%.

One may read the inhibition as how much of the control response was suppressed.
